Where two headings read alike, the source gives them in different places.
How the values were obtained:
Jarid1A = Jarid1A (Homo sapiens (Human), UniProt P29375); assay: Jarid1A in vitro enzyme inhibition assay (TR-FRET); format: biochemical
Source text: The enzymatic assay of Jarid1A activity is based upon Time Resolved-Fluorescence Resonance Energy Transfer (TR-FRET) detection.

KDM5A/B = assay: In vitro cell-based assay: quantitative immuno-blotting of tri-methyl H3K4 in ZR-75-1 breast cancer cells; details: 72 hours exposure, read-out: Cellular IC50
Source text: This quantitative immuno-blotting assay measures the amount tri-methylated histone H3 at amino acid Lysine number 4, a specific substrate […] of the direct enzymatic activity of the histone demethylases KDM5A and KDM5B from extracts of the ZR-75-1 breast cancer cell line.
This assay is a fluorometric immunoassay for the quantification of tri-methyl H3K4 extracted from cells treated with test compound and is used as a measure of the cellular inhibition of KDM5A/B.
ZR-75-1 (PTEN null, ER+) breast cancer cells numbering 50,000 (ATCC) were seeded into each well of a 96-well tissue culture treated plate and then exposed to an 11 point dilution of test compound with final concentration ranges of test compound ranging from […] to 10 nM. […] Extracts were prepared containing all of the cellular histone material using detergent based lysis and sonication methods. These lysates were subsequently normalized for total protein content using a colorimetric bicinchonic acid assay (MicroBCA Pierce/Thermo Scientific). Normalized cell extracts were then subjected to typical immuno-blotting procedures using NuPage reagents (Life Technologies). Electrophoretically separated histones were then transferred and immobilized using polyvinylidene difluoride membrane (Immobilon-FL Millipore). The amount of tri-methylated lysine 4 of histone H3 was detected using an antibody specific to the tri-methylated state (Cell Signaling Technologies) and quantified on an infrared imager using a densitometry software package (Odyssey CLx, Image Studio, Li-Cor). This background subtracted densitometry value was reported as a ration of the GAPDH amount for that sample and then calculated as a percent of the DMSO treated sample. The software package XL-fit (IDBS) was then used to calculate a relative IC50 value for the dilution series of a given test compound according to the equation: fit=(D+((Vmax*(x^n))/((x^n)+(Km^n)))).

Jarid1B = Jarid1B (Homo sapiens (Human), UniProt Q9UGL1); assay: Jarid1B in vitro enzyme inhibition assay (TR-FRET); format: biochemical
Protocol: (§1) This assay determines the ability of a test compound to inhibit Jarid1A, Jarid1B, JMJD2C, and JMJD2A demethylase activity.
The ability of test compounds to inhibit the activity of Jarid1B was determined in 384-well plate format under the following reaction conditions: 0.8 nM Jarid1B, 300 nM H3K4me3-biotin labeled peptide (Anaspec cat #64357), 2 μM alpha-ketoglutaric acid in assay buffer of 50 mM HEPES, pH7.3, 0.005% Brij35, 0.5 mM TCEP, 0.2 mg/ml BSA, 50 μM sodium L-ascorbate, and 2 μM ammonium iron(II) sulfate. Reaction product was determined quantitatively by TR-FRET after the addition of detection reagent Phycolink Streptavidin-allophycocyanin (Prozyme) and Europium-anti-mono- or di-methylated histone H3 lysine 4 (H3K4me1-2) antibody (PerkinElmer) in the presence of 5 mM EDTA in LANCE detection buffer (PerkinElmer) at a final concentration of 25 nM and 1 nM, respectively.
The assay reaction was initiated by the following: 2 μl of the mixture of 900 nM H3K4me3-biotin labeled peptide and 6 μM alpha-ketoglutaric acid with 2 μl of 11-point serial diluted inhibitor in 3% DMSO was added to each well of the plate, followed by the addition of 2 μl of 2.4 nM Jarid1B to initiate the reaction. The reaction mixture was incubated at room temperature for 30 minutes, and terminated by the addition of 6 μl of 5 mM EDTA in LANCE detection buffer containing 50 nM Phycolink Streptavidin-allophycocyanin and 2 nM Europium-anti-H3K4me1-2 antibody. Plates were read by EnVisionMultilabel Reader in TR-FRET mode (excitation at 320 nm, emission at 615 nm and 665 nm) after 1 hour incubation at room temperature. A ratio was calculated (665/615) for each well and fitted to determine inhibition constant (IC50).

FBXL10 = FBXL10 (Homo sapiens (Human), UniProt Q8NHM5); assay: FBXL10 in vitro enzyme inhibition assay (AlphaScreen); format: biochemical
Protocol: Reaction product was determined quantitatively by AlphaScreen detection after the addition of detection reagents anti-H3K36me1 antibody, AlphaScreen® Streptavidin-coated Donor beads, and AlphaScreen® Protein A Acceptor beads in 50 mM HEPES, pH7.3, 10 mM NaCl, 0.005% Brij35, 5 mM EDTA, 2 mg/ml BSA to final 10 μg/ml beads.
Plates were incubated at room temperature for 40 minutes, followed by addition of 3 μl of 50 μg/ml AlphaScreen® Streptavidin-coated Donor beads and AlphaScreen® Protein A Acceptor beads in 50 mM HEPES, pH7.3, 10 mM NaCl, 0.005% Brij35, 5 mM EDTA, 2 mg/ml BSA. Plates were read by EnVisionMultilabel Reader in AlphaScreen mode after a minimum of 2 hour or up to overnight incubation at room temperature. The AlphaScreen signal for each well was used to determine inhibition constant (IC50).

JMJD2C = JMJD2C (Homo sapiens (Human), UniProt Q9H3R0); assay: JMJD2C in vitro enzyme inhibition assay (TR-FRET); format: biochemical
JMJD2A = JMJD2A (Homo sapiens (Human), UniProt O75164); assay: JMJD2A in vitro enzyme inhibition assay (TR-FRET); details: read-out: JMJD2A IC50
Chain of JMJD2A (O75164 1-350): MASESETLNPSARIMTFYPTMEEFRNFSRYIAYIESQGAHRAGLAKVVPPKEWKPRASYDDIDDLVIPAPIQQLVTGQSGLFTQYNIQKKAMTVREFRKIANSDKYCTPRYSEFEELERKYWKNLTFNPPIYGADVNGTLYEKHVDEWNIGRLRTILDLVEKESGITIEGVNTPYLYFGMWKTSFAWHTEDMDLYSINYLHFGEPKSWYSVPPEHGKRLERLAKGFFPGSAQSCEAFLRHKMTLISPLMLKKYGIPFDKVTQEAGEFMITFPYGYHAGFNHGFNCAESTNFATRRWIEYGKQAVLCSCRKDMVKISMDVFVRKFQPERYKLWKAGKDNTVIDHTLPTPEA
Protocol: as §1
Reaction product was determined quantitatively by TR-FRET after the addition of detection reagent Phycolink Streptavidin-allophycocyanin (Prozyme) and Europium-anti-di-methylated histone H3 lysine 9 (H3K9me2) antibody (PerkinElmer) in the presence of 5 mM EDTA in LANCE detection buffer (PerkinElmer) at a final concentration of 50 nM and 1 nM, respectively.
The assay reaction was initiated by the following: 2 μl of the mixture of 900 nM H3K9me3-biotin labeled peptide and 6 μM alpha-ketoglutaric acid with 2 μl of 11-point serial diluted inhibitor in 3% DMSO were added to each well of plate, followed by the addition of 2 μl of 6 nM JMJD2A to initiate the reaction. The reaction mixture was incubated at room temperature for 30 minutes, and terminated by the addition of 6 μl of 5 mM EDTA in LANCE detection buffer containing 100 nM Phycolink Streptavidin-allophycocyanin and 2 nM Europium-anti-H3K9me2 antibody.

Chain of Jarid1B (Q9UGL1 2-751): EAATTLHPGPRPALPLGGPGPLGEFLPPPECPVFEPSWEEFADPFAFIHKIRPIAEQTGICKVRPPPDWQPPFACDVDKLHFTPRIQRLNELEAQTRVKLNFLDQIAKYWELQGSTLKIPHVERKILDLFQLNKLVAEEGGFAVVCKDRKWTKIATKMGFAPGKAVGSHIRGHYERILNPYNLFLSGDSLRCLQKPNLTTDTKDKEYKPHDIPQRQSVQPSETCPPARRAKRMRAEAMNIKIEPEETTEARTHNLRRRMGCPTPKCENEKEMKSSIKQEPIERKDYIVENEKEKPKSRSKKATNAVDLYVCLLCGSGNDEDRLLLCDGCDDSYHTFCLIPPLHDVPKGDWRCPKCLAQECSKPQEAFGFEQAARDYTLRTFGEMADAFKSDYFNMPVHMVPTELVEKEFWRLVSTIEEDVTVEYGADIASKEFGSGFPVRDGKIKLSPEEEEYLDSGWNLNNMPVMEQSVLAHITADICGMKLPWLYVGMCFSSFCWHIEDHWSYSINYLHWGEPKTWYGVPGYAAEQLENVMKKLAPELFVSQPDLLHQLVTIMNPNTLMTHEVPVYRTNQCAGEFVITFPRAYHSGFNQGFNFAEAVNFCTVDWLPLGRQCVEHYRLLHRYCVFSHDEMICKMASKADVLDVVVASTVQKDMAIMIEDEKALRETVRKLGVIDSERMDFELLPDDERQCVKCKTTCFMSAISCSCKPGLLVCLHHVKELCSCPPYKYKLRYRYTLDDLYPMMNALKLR
Chain of FBXL10 (Q8NHM5 1-650): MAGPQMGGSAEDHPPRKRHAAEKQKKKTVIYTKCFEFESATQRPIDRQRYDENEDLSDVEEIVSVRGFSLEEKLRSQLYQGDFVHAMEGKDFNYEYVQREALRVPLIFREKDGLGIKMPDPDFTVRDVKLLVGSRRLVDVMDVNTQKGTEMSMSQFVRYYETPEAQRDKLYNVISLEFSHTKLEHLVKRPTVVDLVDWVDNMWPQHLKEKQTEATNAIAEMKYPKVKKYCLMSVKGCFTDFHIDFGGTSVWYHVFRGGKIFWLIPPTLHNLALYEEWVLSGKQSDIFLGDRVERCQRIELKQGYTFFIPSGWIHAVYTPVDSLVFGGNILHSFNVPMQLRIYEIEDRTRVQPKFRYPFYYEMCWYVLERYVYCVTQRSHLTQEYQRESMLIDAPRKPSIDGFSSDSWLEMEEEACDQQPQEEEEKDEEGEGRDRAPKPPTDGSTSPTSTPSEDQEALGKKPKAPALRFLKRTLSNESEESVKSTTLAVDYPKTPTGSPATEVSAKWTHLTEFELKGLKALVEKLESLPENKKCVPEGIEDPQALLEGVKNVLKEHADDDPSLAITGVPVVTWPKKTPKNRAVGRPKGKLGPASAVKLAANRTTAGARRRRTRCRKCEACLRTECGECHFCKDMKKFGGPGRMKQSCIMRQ
Chain of JMJD2C (Q9H3R0 2-372): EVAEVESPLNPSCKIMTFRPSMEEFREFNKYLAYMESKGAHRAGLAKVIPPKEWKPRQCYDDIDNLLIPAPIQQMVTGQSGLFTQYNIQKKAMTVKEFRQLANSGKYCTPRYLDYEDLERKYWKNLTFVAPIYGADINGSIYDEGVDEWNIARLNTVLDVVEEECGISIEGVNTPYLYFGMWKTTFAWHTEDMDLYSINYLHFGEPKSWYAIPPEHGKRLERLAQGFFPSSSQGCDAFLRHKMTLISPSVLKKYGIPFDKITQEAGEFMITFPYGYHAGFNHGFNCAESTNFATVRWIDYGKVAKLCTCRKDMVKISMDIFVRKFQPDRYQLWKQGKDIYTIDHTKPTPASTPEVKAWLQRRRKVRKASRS
Chain of Jarid1A (P29375 1-1090): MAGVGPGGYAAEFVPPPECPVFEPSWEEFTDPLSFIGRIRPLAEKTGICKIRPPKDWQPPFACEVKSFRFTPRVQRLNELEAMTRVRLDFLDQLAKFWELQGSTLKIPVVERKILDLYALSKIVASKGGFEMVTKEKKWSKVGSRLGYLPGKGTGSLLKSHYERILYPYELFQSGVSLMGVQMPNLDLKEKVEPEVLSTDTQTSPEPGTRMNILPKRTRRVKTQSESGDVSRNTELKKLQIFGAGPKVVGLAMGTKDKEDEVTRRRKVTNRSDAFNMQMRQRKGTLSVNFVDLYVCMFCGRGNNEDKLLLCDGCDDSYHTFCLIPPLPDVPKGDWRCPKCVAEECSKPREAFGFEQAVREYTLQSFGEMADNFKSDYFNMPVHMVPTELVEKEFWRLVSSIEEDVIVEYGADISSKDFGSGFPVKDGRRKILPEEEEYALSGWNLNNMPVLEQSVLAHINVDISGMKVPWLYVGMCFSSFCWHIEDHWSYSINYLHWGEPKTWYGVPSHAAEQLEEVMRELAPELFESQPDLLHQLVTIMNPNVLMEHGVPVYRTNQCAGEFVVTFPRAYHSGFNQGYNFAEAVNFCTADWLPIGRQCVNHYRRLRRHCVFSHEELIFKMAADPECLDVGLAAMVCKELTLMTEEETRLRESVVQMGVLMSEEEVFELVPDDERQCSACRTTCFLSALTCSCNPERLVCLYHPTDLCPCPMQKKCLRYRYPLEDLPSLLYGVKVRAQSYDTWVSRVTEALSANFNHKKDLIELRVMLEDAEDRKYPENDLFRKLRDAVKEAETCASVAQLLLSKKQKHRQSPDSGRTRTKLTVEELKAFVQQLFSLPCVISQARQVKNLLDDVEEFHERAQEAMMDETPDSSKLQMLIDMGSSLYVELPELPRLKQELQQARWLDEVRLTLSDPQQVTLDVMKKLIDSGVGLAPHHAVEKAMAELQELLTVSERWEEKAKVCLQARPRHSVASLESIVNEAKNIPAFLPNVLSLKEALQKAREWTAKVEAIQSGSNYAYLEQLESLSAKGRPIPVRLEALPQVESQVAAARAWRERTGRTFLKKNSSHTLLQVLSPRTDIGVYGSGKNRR

IC50 (Jarid1A)	IC50 (KDM5A/B; Homo sapiens)	IC50 (Jarid1B)	IC50 (FBXL10)	IC50 (JMJD2C)	Compound	IC50 (JMJD2A)	IC50 (KDM5A/B)
< 100 nM	> 10000 nM	< 100 nM	100 to 1000 nM		Cn1ncc2ccc(COc3ccnn3-c3cc(C(=O)O)ccn3)cc21 [Example 50, 2-{5-[(1-methyl-1H-indazol-6-yl)methoxy]-1H-pyrazol-1-yl}pyridine-4-carboxylic acid]		
< 100 nM	100 to 1000 nM	< 100 nM		< 100 nM	O=C(O)c1ccnc(-n2nccc2OCc2ccc(Br)cc2)c1 [Example 57, 2-{5-[(4-bromobenzyl)oxy]-1H-pyrazol-1-yl}pyridine-4-carboxylic acid]		
< 100 nM	1000 to 10000 nM	< 100 nM		< 100 nM	O=C(O)c1ccnc(-n2nccc2OCc2cccc(Br)c2)c1 [Example 72, 2-{5-[(3-bromobenzyl)oxy]-1H-pyrazol-1-yl}pyridine-4-carboxylic acid]		
< 100 nM	1000 to 10000 nM	< 100 nM		< 100 nM	O=C(O)c1ccnc(-n2nccc2OCc2ccc(Cl)c(F)c2)c1 [Example 74, 2-{5-[(4-chloro-3-fluorobenzyl)oxy]-1H-pyrazol-1-yl}pyridine-4-carboxylic acid]		
< 100 nM	100 to 1000 nM	< 100 nM		100 to 1000 nM	O=C(O)c1ccnc(-n2nccc2OCc2ccc(Cl)c(Cl)c2)c1 [Example 87, 2-[5-[(3,4-dichlorophenyl)methoxy]pyrazol-1-yl]pyridine-4-carboxylic acid]		
< 100 nM	< 100 nM	< 100 nM	100 to 1000 nM	100 to 1000 nM	Cc1cc(Cl)ccc1COc1ccnn1-c1cc(C(=O)O)ccn1 [Example 89, 2-[5-[(4-chloro-2-methylphenyl)methoxy]pyrazol-1-yl]pyridine-4-carboxylic acid]		
< 100 nM	100 to 1000 nM	< 100 nM		100 to 1000 nM	CCOc1cc(Cl)ccc1COc1ccnn1-c1cc(C(=O)O)ccn1 [Example 115, 2-[5-[(4-chloro-2-ethoxyphenyl)methoxy]pyrazol-1-yl]pyridine-4-carboxylic acid]		
100 to 1000 nM	> 10000 nM	< 100 nM			CC1(C)Cc2cccc(COc3ccnn3-c3cc(C(=O)O)ccn3)c2O1 [Example 124, 2-[5-[(2,2-dimethyl-3H-1-benzofuran-7-yl)methoxy]pyrazol-1-yl]pyridine-4-carboxylic acid]		
< 100 nM	1000 to 10000 nM	< 100 nM		100 to 1000 nM	Cc1cc(C#N)ccc1COc1ccnn1-c1cc(C(=O)O)ccn1 [Example 125, 2-[5-[(4-cyano-2-methylphenyl)methoxy]pyrazol-1-yl]pyridine-4-carboxylic acid]		
100 to 1000 nM	1000 to 10000 nM	100 to 1000 nM		1000 to 10000 nM	CCc1cc(Cl)ccc1COc1ccnn1-c1cc(C(=O)O)ccn1 [Example 127, 2-[5-[(4-chloro-2-ethylphenyl)methoxy]pyrazol-1-yl]pyridine-4-carboxylic acid]		
	100 to 1000 nM				O=C(O)c1ccnc(-n2nccc2OCc2ccc(F)c(OCc3ccc(F)cc3)c2)c1 [Example 139, 2-[5-[[4-fluoro-3-[(4-fluorophenyl)methoxy]phenyl]methoxy]pyrazol-1-yl]pyridine-4-carboxylic acid]		
1000 to 10000 nM		1000 to 10000 nM	< 100 nM	1000 to 10000 nM	O=C(O)c1ccnc(-n2nc(-c3cccc(Cl)c3)cc2O)c1 [Example 159, 2-[3-(3-chlorophenyl)-5-hydroxypyrazol-1-yl]pyridine-4-carboxylic acid]	> 10000 nM	
1000 to 10000 nM		100 to 1000 nM	< 100 nM	1000 to 10000 nM	O=C(O)c1ccnc(-n2nc(C3CCCC3)cc2O)c1 [Example 160, 2-(3-cyclopentyl-5-hydroxypyrazol-1-yl)pyridine-4-carboxylic acid]	> 10000 nM	
					methyl 2-[5-(benzyloxy)-1H-pyrazol-1-yl]pyridine-4-carboxylate [Example 62]		1000 to 10000 nM

Compound	IC50 (Jarid1A)	IC50 (KDM5A/B; Homo sapiens)	IC50 (Jarid1B)	IC50 (FBXL10)	IC50 (JMJD2C)	IC50 (JMJD2A)	IC50 (KDM5A/B)
O=C(O)c1ccnc(-n2nccc2OCc2ccc(Cl)cc2OCc2ccc(F)cc2)c1 [Example 117, 2-[5-[[4-chloro-2-[(4-fluorophenyl)methoxy]phenyl]methoxy]pyrazol-1-yl]pyridine-4-carboxylic acid]	100 to 1000 nM	1000 to 10000 nM	100 to 1000 nM	1000 to 10000 nM	1000 to 10000 nM	1000 to 10000 nM	
COc1cc(C)ccc1COc1ccnn1-c1cc(C(=O)O)ccn1 [Example 133, 2-[5-[(2-methoxy-4-methylphenyl)methoxy]pyrazol-1-yl]pyridine-4-carboxylic acid]	< 100 nM	100 to 1000 nM	< 100 nM	1000 to 10000 nM	100 to 1000 nM	100 to 1000 nM	
